We go through three compounds from the NIST ThermoML archive (doi:10.1016/j.jct.2006.07.004).

As a reminder, the viscosity is the resistance of a fluid to flow. In general, mass density refers to the mass of a sample divided by its volume. What is called vapor or sublimation pressure is the equilibrium pressure above the liquid or solid.

For series [1] the following is noted: Liquid; for viscosity / mass density: 101 kPa; for viscosity: Capillary tube (Ostwald / Ubbelohde) method; for mass density: Vibrating tube method.
Series [2] is described as follows: xn = mol fraction of the nth substance listed. The settings on record: 101 kPa, Liquid, x2 = 0; for viscosity: Capillary tube (Ostwald / Ubbelohde) method; for mass density: Vibrating tube method.

Numbers after ± are expanded uncertainties.

With `CC(=O)CC(C)C` [4-methylpentan-2-one], the viscosity amounted to 0.655 ± 0.006 mPa·s in series [1] (283.15 K), 0.576 ± 0.005 mPa·s in series [1] (293.15 K), 0.511 ± 0.005 mPa·s in series [1] (303.15 K) and 0.46 ± 0.004 mPa·s in series [1] (313.15 K). Moreover, the mass density was 809.8 ± 0.3 kg/m3 in series [1] (283.15 K), 800.7 ± 0.3 kg/m3 in series [1] (293.15 K), 791.6 ± 0.3 kg/m3 in series [1] (303.15 K) and 782.2 ± 0.3 kg/m3 in series [1] (313.15 K). For the same compound, in series [1] (303.15 K), the “vapor or sublimation pressure” value worked out at 3.89 ± 0.11 kPa.
`CC(=O)CC(C)C` [4-methylpentan-2-one] + ClC(Cl)Cl: the viscosity is given as 0.655 ± 0.006 mPa·s in series [2] (283.15 K), 0.576 ± 0.005 mPa·s in series [2] (293.15 K), 0.511 ± 0.005 mPa·s in series [2] (303.15 K) and 0.46 ± 0.004 mPa·s in series [2] (313.15 K). Besides, the mass density is reported as 809.8 ± 0.3 kg/m3 in series [2] (283.15 K), 800.7 ± 0.3 kg/m3 in series [2] (293.15 K), 791.6 ± 0.3 kg/m3 in series [2] (303.15 K) and 782.2 ± 0.3 kg/m3 in series [2] (313.15 K).
In the case of `ClC(Cl)Cl` [trichloromethane], the viscosity turned out to be 0.629 ± 0.005 mPa·s in series [1] (283.15 K), 0.573 ± 0.005 mPa·s in series [1] (293.15 K), 0.516 ± 0.005 mPa·s in series [1] (303.15 K) and 0.468 ± 0.004 mPa·s in series [1] (313.15 K). For the same compound, the mass density in series [1] (283.15 K) worked out at 1507.3 ± 0.7 kg/m3; in series [1] (293.15 K), 1488.4 ± 0.7 kg/m3; in series [1] (303.15 K), 1469.4 ± 0.6 kg/m3; in series [1] (313.15 K) it was 1450 ± 0.6 kg/m3. Also, the “vapor or sublimation pressure” value in series [1] (303.15 K) worked out at 32.19 ± 0.33 kPa.
